This note sets out measurements from patent US9045524B2, “Selective caspase inhibitors and uses thereof” (NOVAGENESIS FOUNDATION, priority 2009, dated 2015).

One test deals with Caspase-1 (Homo sapiens (Human), UniProt P29466). The test can be described thus: Caspase-1 Inhibitor Drug Screening Kit, fluorometric (AFC liberation). It is filed as biochemical. The note with it: for IC50: 30-minute incubation at 37° C., approximations of the average values, read-out: Caspase enzymatic activity, IC50 (uM) Caspase 1.
In a further test the target is Caspase-7 (Homo sapiens (Human), UniProt P55210). The test can be described thus: Caspase-7 Inhibitor Drug Screening Kit, fluorometric (AFC liberation). It is filed as biochemical. The note with it: 30-minute incubation at 37° C.; approximations of the average values; read-out: Caspase enzymatic activity, IC50 (uM) Caspase 7.
For a further test, the system named is Glo3/7. Briefly: Glo3/7 assay. It is filed as biochemical.
A further test addresses Caspase-9 (Homo sapiens (Human), UniProt P55211). Briefly: Caspase-9 Inhibitor Drug Screening Kit, fluorometric (AFC liberation). It is filed as biochemical. To be noted: for IC50: 30-minute incubation at 37° C., approximations of the average values, read-out: Caspase enzymatic activity, IC50 (uM) Caspase 9.
The target in the next test is Caspase-5 (Homo sapiens (Human), UniProt P51878). Briefly: Caspase-5 Inhibitor Drug Screening Kit, fluorometric (AFC liberation). To be noted: for IC50: 30-minute incubation at 37° C., approximations of the average values, read-out: Caspase enzymatic activity, IC50 (uM) Caspase 5. It is filed as biochemical.
The next test has as its target Caspase-3 (Homo sapiens (Human), UniProt P42574). The test can be described thus: Caspase-3 Inhibitor Drug Screening Kit, fluorometric (AFC liberation). It is filed as biochemical.
The next test concerns EAE in C57BL/6 mice. The test can be described thus: Chronic EAE mouse model (MOG35-55 immunization), daily clinical score and body weight. It is filed as in vivo. Also on record: key to Delay in onset of the disease / Reduction in severity of the disease / Reduction in body weight loss: +++: high level improvement; ++: moderate improvement; +: small improvement; −: no improvement. The note with it: for Delay in onset of the disease / Reduction in body weight loss / Reduction in severity of the disease: average overall effects on the EAE model, i.p. The source says: The aim of this study was to verify the effectiveness of compounds in a chronic mouse animal model of EAE. EAE is a good proof-of-principle model of neurodegeneration since it encompasses degeneration or destruction of practically all the cells in the central nervous system, includes most major immunomodulatory components, and is able to maintain normal innate regenerative functions in the animal. This is a standard model (Antel J P et al., J Neurosci Res. 1997, 50: 345-353) used mainly to mimic the course evolution of Multiple Sclerosis (MS) in humans, and is commonly used for studying disease mechanisms and testing potential therapies. EAE is induced by immunization with myelin proteins, leading to development of myelin-specific T cells. These autoreactive T cells traffic into CNS parenchyma where they initiate an inflammatory cascade through recruitment of other cells such as monocytes and neutrophils. Accumulation of immune cells within CNS leads to myelin damage, axonal loss and clinical deficit in affected animals. EAE can be induced in a variety of species and strains of animals [mice, Rat, marmoset monkey, rhesus macaques] using various CNS antigens [Myelin Oligodendrocyte Glycoprotein (MOG), proteolipid protein (PLP) and myelin basic protein (MBP)]. Seven to 8 week old female C57BL/6 mice were purchased from Charles River Laboratories, and housed at MISPRO™ animal facility for one week before experimentation for adaptation to the new environment. All proper animal experimentation and ethics approvals were obtained prior to the start of any experiments. Mice were immunized subcutaneously with 100 μg of MOG35-55 (Sheldon Biotechnology Centre, McGill University) in CFA containing 5 mg/ml of desiccated (killed and dried) Mycobacterium tuberculosis H37Ra (Difco, Inc), at two sites on the back. The mice were then injected with 200 ng of pertussis toxin (List Biological Laboratories, Inc) in PBS intraperitoneally on days 0 and 2 using 25 gauge needles and scored daily using an EAE clinical scale as detailed below (Touil T et al., J Neurol Sci. 2008, 271:191-202; Antel J P et al., 1997, supra; Owens T et al., Curr Pharm Des. 2005, 1:1031-1037).
EAE was clinically assessed throughout the experiments by daily scoring using a scale from 0 to 5 as follows: partial limp tail, 0.5; full limp tail, 1; limp tail and waddling gait, 1.5; paralysis of one hind limb, 2; paralysis of one hind limb and partial paralysis of other hind limb, 2.5; paralysis of both hind limbs, 3; ascending paralysis, 3.5; paralysis of trunk, 4; moribund, 4.5; death, 5. In all the EAE models a body weight loss is always associated with the clinical signs. This body weight loss is associated with the loss of the function and the paralysis of the muscle (atrophy inducing loss of weight). For animals showing a clinical sign of 2 or more, the food and the water were presented inside the cage to facilitate eating and drinking.
At the onset of clinical signs of EAE, the mice were treated with 200 μl of Compound 51, 53, 57, 59, 101, 104, 105, 111 or 123 dissolved in 2.5% Dimethyl sulfoxide (DMSO) in PBS, while placebo groups were treated with 2.5% Dimethyl sulfoxide (DMSO) in PBS only, by intraperitoneal injection at different time of the clinical evolution.

The mark [1] stands for this setting: 30-minute incubation at 37° C., approximations of the average values, read-out: Caspase enzymatic activity, IC50 (uM) Caspase 3.
The mark [2] stands for this setting: at the tested dose-range (1 to 3333 nM).
Where [3] appears, read: FIG. 2, i.p. from day 10 to 16 post immunization, versus placebo.
Where [4] appears, read: FIG. 4, administration for 15 days from day 12 post-immunization, versus placebo.

One may read the IC50 as the point on the concentration scale where inhibition reaches its midpoint.

Like-named read-outs stand apart in the source and are kept apart here. Some results are limits rather than exact numbers.

Sequence of Caspase-7 (P55210 whole entry): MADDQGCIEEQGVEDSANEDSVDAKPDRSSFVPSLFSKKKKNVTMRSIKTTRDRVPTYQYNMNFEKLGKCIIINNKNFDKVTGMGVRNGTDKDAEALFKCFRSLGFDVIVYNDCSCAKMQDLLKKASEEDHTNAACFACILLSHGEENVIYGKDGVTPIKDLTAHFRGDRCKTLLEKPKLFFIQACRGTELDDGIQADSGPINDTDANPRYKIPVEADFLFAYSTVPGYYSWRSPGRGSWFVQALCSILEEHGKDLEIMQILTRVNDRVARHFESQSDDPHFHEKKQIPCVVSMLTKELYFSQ
Sequence of Caspase-5 (P51878 137-434): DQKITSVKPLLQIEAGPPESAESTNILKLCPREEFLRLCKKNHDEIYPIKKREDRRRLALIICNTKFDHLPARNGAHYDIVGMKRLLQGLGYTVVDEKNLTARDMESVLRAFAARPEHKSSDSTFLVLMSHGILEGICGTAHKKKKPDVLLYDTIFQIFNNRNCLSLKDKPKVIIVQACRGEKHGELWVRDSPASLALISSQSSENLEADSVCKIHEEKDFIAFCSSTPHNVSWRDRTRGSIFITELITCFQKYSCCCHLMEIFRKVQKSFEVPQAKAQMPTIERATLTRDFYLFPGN
Sequence of Caspase-9 (P55211 whole entry): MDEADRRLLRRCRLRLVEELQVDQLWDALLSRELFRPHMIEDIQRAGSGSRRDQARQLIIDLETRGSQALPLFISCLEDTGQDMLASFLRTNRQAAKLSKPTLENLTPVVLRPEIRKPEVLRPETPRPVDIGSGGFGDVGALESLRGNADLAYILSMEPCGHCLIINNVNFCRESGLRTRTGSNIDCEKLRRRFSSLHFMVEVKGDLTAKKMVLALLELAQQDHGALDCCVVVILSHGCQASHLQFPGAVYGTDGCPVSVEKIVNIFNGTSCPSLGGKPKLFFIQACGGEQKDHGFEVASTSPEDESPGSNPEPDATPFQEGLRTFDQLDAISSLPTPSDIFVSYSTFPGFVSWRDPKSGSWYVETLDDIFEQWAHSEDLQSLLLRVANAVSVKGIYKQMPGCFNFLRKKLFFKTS
Sequence of Caspase-3 (P42574 29-277): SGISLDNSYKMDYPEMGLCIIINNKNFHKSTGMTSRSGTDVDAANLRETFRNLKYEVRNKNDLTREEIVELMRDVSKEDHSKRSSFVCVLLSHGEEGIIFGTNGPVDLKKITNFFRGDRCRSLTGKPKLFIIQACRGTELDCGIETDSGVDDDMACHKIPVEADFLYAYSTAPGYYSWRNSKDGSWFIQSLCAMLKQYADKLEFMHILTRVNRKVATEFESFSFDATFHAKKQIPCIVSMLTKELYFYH
Sequence of Caspase-1 (P29466 120-404): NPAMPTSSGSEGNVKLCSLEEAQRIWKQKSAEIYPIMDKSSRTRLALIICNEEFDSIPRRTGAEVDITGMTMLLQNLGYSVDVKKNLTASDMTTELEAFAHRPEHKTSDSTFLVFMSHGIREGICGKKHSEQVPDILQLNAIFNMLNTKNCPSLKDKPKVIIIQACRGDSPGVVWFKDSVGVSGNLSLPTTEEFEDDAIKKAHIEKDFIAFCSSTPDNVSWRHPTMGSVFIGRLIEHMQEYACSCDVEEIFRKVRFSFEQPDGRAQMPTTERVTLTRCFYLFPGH
Description for Caspase-1: (§1) The level of inhibition of caspase-1, -3, -5, -7, -9 activity was determined by comparison of the relative fluorescence intensity in samples with or without the compound.
Description for Caspase-3: as §1
Description for Caspase-5: as §1
Description for Caspase-7: as §1
Description for Caspase-9: as §1

Turning to `CC(C)(C)OC(=O)C[C@@H](/C=C/S(=O)(=O)c1ccccc1)NC(=O)OC(C)(C)C` [Compound 36, Boc-Asp(O-tBu)VSphenyl], the IC50 was above 3.33 µM at Caspase-1; above 3.33 µM at Caspase-7; above 50 µM in the test on Glo3/7; above 3.33 µM on Caspase-9; above 3.33 µM on Caspase-5; above 2 µM at Caspase-3 (setting [1]).
As to `CC(C)[C@H](NC(=O)OCc1ccccc1)C(=O)N[C@H](/C=C/S(C)(=O)=O)CC(=O)O` [Compound 61, z-Val-AspVSmethyl], the IC50 at Caspase-1 was above 3.33 µM; at Caspase-7, above 3.33 µM; in the test with Glo3/7, 50 µM; at Caspase-9 it was above 3.33 µM; at Caspase-5, above 3.33 µM; at Caspase-3 (setting [1]), above 3.33 µM. The “activity against caspase-3” value on Caspase-3 was “abolished completely the activity”.
For the compound `CC(C)[C@H](NC(=O)[C@H](Cc1ccc2ccccc2n1)NC(=O)[C@H](CC(=O)O)NC(=O)OCc1ccccc1)C(=O)N[C@H](/C=C/S(=O)(=O)c1ccccc1)CC(=O)O` [Compound 63, Z-Asp-Ala(2′-quinolyl)-Val-Aspphenyl vinyl sulfone], the IC50 at Caspase-1 was above 3.33 µM; on Caspase-7, 1.8 µM; with Glo3/7, 0.9 µM; at Caspase-9, above 3.33 µM; on Caspase-5, above 3.33 µM; on Caspase-3 (setting [1]), 0.04 µM. Also, on Caspase-1 (setting [2]), the “inhibitory activity for caspase-1” value is given as “No significant inhibitory activity”. The “inhibitory activity for caspase-9” value at Caspase-9 (setting [2]) is given as “No significant inhibitory activity”. For the same compound, the “inhibitory activity for caspase-5” value on Caspase-5 (setting [2]) is on record as “No significant inhibitory activity”. The “selectivity of Caspase-3 over Caspase-7 based on IC50 values” at Caspase-3 (IC50 caspase-7 versus caspase-3) was around 50 fold.
`CC(C)[C@H](NC(=O)[C@H](Cc1ccc2ccccc2n1)NC(=O)[C@H](CC(=O)O)NC(=O)OCc1ccccc1)C(=O)N[C@H](/C=C/S(=O)(=O)Oc1ccccc1)CC(=O)O` [Compound 65, Z-Asp-Ala(2′-quinolyl)-Val-Aspphenoxy vinyl sulfone]: the IC50 is 1.2 µM on Caspase-1; 0.4 µM at Caspase-7; 0.2 µM with Glo3/7; 0.3 µM on Caspase-9; above 3.33 µM on Caspase-5; 0.01 µM on Caspase-3 (setting [1]).
As to `CC(C)[C@H](NC(=O)[C@@H](NC(=O)[C@H](CC(=O)O)NC(=O)OCc1ccccc1)C1Cc2ccccc2C1)C(=O)N[C@H](/C=C/S(=O)(=O)C(C)C)CC(=O)O` [Compound 68, Z-Asp-Indanylglycine-Val-Aspisopropyl Vinyl Sulfone], the IC50 on Caspase-1 was above 3.33 µM; at Caspase-7, 1.5 µM; with Glo3/7, 1.1 µM; at Caspase-9 it was above 3.33 µM; on Caspase-5 it was above 3.33 µM; on Caspase-3 (setting [1]) it was 0.2 µM.
With `CC(C)[C@H](NC(=O)C(Cc1ccc2ccccc2n1)NC(=O)[C@H](CC(=O)O)NC(=O)OCc1ccccc1)C(=O)N[C@H](/C=C/S(=O)(=O)c1ccccc1)CC(=O)O` (stereo partly drawn) [Compound 70, Z-Asp-(D,L Ala(2′-quinolyl))-Val-Aspphenyl Vinylsulfone], the concentration for half-maximal inhibition (IC50) is above 3.33 µM at Caspase-1; above 10 µM on Caspase-7; 20 µM in the test with Glo3/7; above 10 µM at Caspase-9; above 10 µM at Caspase-5; 0.3 µM at Caspase-3 (setting [1]).
In the case of `CC(C)[C@H](NC(=O)[C@H](Cc1c[nH]c2ccccc12)NC(=O)[C@H](CC(=O)O)NC(=O)OCc1ccccc1)C(=O)N[C@H](/C=C/S(C)(=O)=O)CC(=O)O` [Compound 88, Z-Asp-Trp-Val-Aspmethyl vinyl sulfone], the IC50 on Caspase-1 was 0.7 µM; at Caspase-7, 1.1 µM; in the test with Glo3/7, 0.7 µM; on Caspase-9, above 3.33 µM; on Caspase-5, above 3.33 µM; on Caspase-3 (setting [1]), 0.04 µM. Further, on Caspase-3 (read-out: IC50 caspase-3), the IC50 is 0.03 to 0.09 µM.
Turning to `CC(C)[C@H](NC(=O)[C@H](Cc1ccc(OC(C)(C)C)cc1)NC(=O)OCc1ccccc1)C(=O)N[C@@H](C)C(=O)N[C@H](/C=C/S(=O)(=O)c1ccccc1)CC(=O)OC(C)(C)C` [Compound 95, Z-Tyr(OtBu)- Val-Ala-Asp (OtBu) phenyl vinyl sulfone], in the test with EAE in C57BL/6 mice (FIG. 3, i.p. from day 14 to 19 post immunization, versus placebo), the “effects on the clinical course of EAE” value is given as “ameliorating effects”.
Turning to `COC(=O)C[C@@H](/C=C(\Cl)S(C)(=O)=O)NC(=O)[C@@H](NC(=O)[C@@H](NC(=O)[C@H](CC(=O)OC)NC(=O)OCc1ccccc1)c1ccccc1)C(C)C` [Compound 104, Z-Asp(β-methyl)-phenylglycine-Val-Asp(β-methyl)achlorovinyl Methylsulfone], in the test with EAE in C57BL/6 mice (setting [3]), the Disease onset result is “delayed”; the “Loss of body weight” value was “did not show and significant difference compared to placebo”; the “severity of the disease” value is “reduced significantly at the early stage of the disease”. Also, in the test on EAE in C57BL/6 mice, the “Delay in onset of the disease” value is “++”, the “Reduction in body weight loss” value is “−” and the “Reduction in severity of the disease” value is recorded as “+”.
With `COC(=O)C[C@@H](/C=C(\Cl)S(C)(=O)=O)NC(=O)[C@@H](NC(=O)[C@@H](NC(=O)[C@H](CC(=O)OC)NC(=O)OCc1ccccc1)C1Cc2ccccc2C1)C(C)C` [Compound 105, Z-Asp(β-methyl)-indanylglycine-Val-Asp(β-methyl)achlorovinyl Methylsulfone], in the test on EAE in C57BL/6 mice (setting [3]), the Disease onset result was “delayed”, the “Loss of body weight” value is reported as “less than placebo” and the “severity of the disease” value is listed as “reduced significantly at the early stage of the disease”. Moreover, in the test on EAE in C57BL/6 mice, the “Delay in onset of the disease” value is on record as “++”, the “Reduction in body weight loss” value is “++” and the “Reduction in severity of the disease” value is listed as “+”.
As to `COC(=O)CC[C@H](NC(=O)[C@H](CC(=O)OC)NC(=O)OCc1ccccc1)C(=O)N[C@H](C(=O)N[C@@H](CC(=O)OC)C(=O)CF)C(C)C` [zDEVD-FMK, z-D(OMe)E(OMe)VD(OMe)FMK, reference compound], in the test on EAE in C57BL/6 mice (setting [4]), the “onset of the disease” value is reported as “delayed the onset” and the “severity of the disease” value is reported as “reduced the severity of the disease”.
